# Earlier results, collected in patent publication US20080317886A1, “Compositions for Preventing and Reducing Delayed Onset Muscle Soreness” (priority 2005, published 2008).
# Assays:
# muscle damage (CPK, LDH) = settings: 3 g HMB per day, six weeks of training, 20 km run; compared to placebo
# [1] = test system: perceived muscle soreness; settings: downhill running protocol
# [2] = test system: muscle damage (blood CPK); settings: men and women, 4-week weight training program
# [3] = test system: muscle catabolism (3-methylhistidine); settings: intense resistance-weight training
# [4] = HMB with 75 g glucose in water compared with HMB with water
# [5] = test system: delayed onset muscle soreness; settings: six days supplementation with 40 mg/kg HMB, single bout of exercise
# [6] = "in as little as"
substance,measurement,setting,value
beta-hydroxy-beta-methylbutyrate [HMB],blood levels of CPK after the run,"muscle damage (CPK, LDH)",reduced levels
same,blood levels of LDH after the run,"muscle damage (CPK, LDH)",reduced levels
same,perceived muscle soreness,[1],reduced
same,strength loss,[1],less strength loss
same,decrease in blood CPK levels,[2],2%
same,plasma 3-MH,[3],significant decrease
same,HMB excreted in the urine,[4],less
same,plasma HMB levels,[4],lower
same,DOMS,[5],did not reduce
same,time to increase of plasma levels,[6],30 min
